Experimental data: PubChem BioAssay AID1963427 (Molecular Pharmacology Branch, DTP, NCI, 2024)

Test system: 317291-083-R-J1-PDC complex spheroid growth
Assay: Anticancer human tumor 317291-083-R-J1-PDC patient-derived soft tissue sarcoma cell line growth inhibition [Asc]
Settings: for IC50: curve of first compound; for viability, T/C: stronger effect = lower value
Outline: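 Spheroid model: tumor line + HUVEC + hMSC. Single agents and combinations; top conc. at/near clinical Cmax (10 microM if undetermined), half-log dilutions. DMSO stocks at 800-fold test concentration.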

[1] = second compound 0.00316 µM, first compound 0.0316 µM
[2] = second compound 0.00316 µM, first compound 0.1 µM
[3] = second compound 0.01 µM, first compound 0.0316 µM
[4] = second compound 0.01 µM, first compound 0.1 µM
[5] = second compound 0.0316 µM, first compound 0.0316 µM
[6] = second compound 0.0316 µM, first compound 0.1 µM
[7] = second compound 0.1 µM, first compound 0.0316 µM
[8] = second compound 0.1 µM, first compound 0.1 µM
[9] = second compound 0.316 µM, first compound 0.0316 µM
[10] = second compound 0.316 µM, first compound 0.1 µM
[11] = second compound 1 µM, first compound 0.0316 µM
[12] = second compound 1 µM, first compound 0.1 µM
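Note: compound exposure lasted seven days after spheroids formed for three days.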
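Throughout, for viability, T/C: 100% = DMSO vehicle control wells.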

`Cn1ncnc1[C@H]1c2n[nH]c(=O)c3cc(F)cc(c23)N[C@@H]1c1ccc(F)cc1` + CNC(C)C(=O)NC1CN(S(=O)(=O)c2cccc(S(=O)(=O)N3CCC4CCC(C(=O)NC(c5ccccc5)c5ccccc5)N4C(=O)C(NC(=O)C(C)NC)C3)c2)CCC2CCC(C(=O)NC(c3ccccc3)c3ccccc3)N2C1=O was tested, and the IC50 (second compound 0.00316 µM) was < 0.316 nM, the IC50 (second compound 0.01 µM) was < 0.316 nM and the IC50 (second compound 0.0316 µM) was 21.8 nM. The IC50 (second compound 0.1 µM) was 17.2 nM, the IC50 (second compound 0.316 µM) was 1.01 nM and the IC50 (second compound 1 µM) was < 0.316 nM. The viability, T/C (second compound 0.00316 µM, first compound 0.000316 µM) was 3.79%, the viability, T/C (second compound 0.00316 µM, first compound 0.001 µM) was 4.39% and the viability, T/C (second compound 0.00316 µM, first compound 0.00316 µM) was 4.26%. The viability, T/C (second compound 0.00316 µM, first compound 0.01 µM) was 4.44%, the viability, T/C [1] was 4.58% and the viability, T/C [2] was 4.39%. For the same compound, the viability, T/C (second compound 0.01 µM, first compound 0.000316 µM) was 45.2%, the viability, T/C (second compound 0.01 µM, first compound 0.001 µM) was 37.4% and the viability, T/C (second compound 0.01 µM, first compound 0.00316 µM) was 46.9%. For the same compound, the viability, T/C (second compound 0.01 µM, first compound 0.01 µM) was 29.3%, the viability, T/C [3] was 28.5% and the viability, T/C [4] was 34.5%. It also gave a viability, T/C (second compound 0.0316 µM, first compound 0.000316 µM) of 79%, a viability, T/C (second compound 0.0316 µM, first compound 0.001 µM) of 86% and a viability, T/C (second compound 0.0316 µM, first compound 0.00316 µM) of 82.5%. For the same compound, the viability, T/C (second compound 0.0316 µM, first compound 0.01 µM) was 57%, the viability, T/C [5] was 40.3% and the viability, T/C [6] was 52.7%. For the same compound, the viability, T/C (second compound 0.1 µM, first compound 0.000316 µM) was 95.4%, the viability, T/C (second compound 0.1 µM, first compound 0.001 µM) was 76.5% and the viability, T/C (second compound 0.1 µM, first compound 0.00316 µM) was 60.8%. It also gave a viability, T/C (second compound 0.1 µM, first compound 0.01 µM) of 56.6%, a viability, T/C [7] of 39.3% and a viability, T/C [8] of 50.4%. For the same compound, the viability, T/C (second compound 0.316 µM, first compound 0.000316 µM) was 58.8%, the viability, T/C (second compound 0.316 µM, first compound 0.001 µM) was 55.7% and the viability, T/C (second compound 0.316 µM, first compound 0.00316 µM) was 36.8%. The viability, T/C (second compound 0.316 µM, first compound 0.01 µM) was 41.6%, the viability, T/C [9] was 28.9% and the viability, T/C [10] was 35.9%. For the same compound, the viability, T/C (second compound 1 µM, first compound 0.000316 µM) was 34%, the viability, T/C (second compound 1 µM, first compound 0.001 µM) was 37.4% and the viability, T/C (second compound 1 µM, first compound 0.00316 µM) was 28.1%. It also gave a viability, T/C (second compound 1 µM, first compound 0.01 µM) of 30.9%, a viability, T/C [11] of 29.2% and a viability, T/C [12] of 22.3%.
`O=C(c1cc(Cc2n[nH]c(=O)c3ccccc23)ccc1F)N1CCN(C(=O)C2CC2)CC1` + CNC(C)C(=O)NC1CN(S(=O)(=O)c2cccc(S(=O)(=O)N3CCC4CCC(C(=O)NC(c5ccccc5)c5ccccc5)N4C(=O)C(NC(=O)C(C)NC)C3)c2)CCC2CCC(C(=O)NC(c3ccccc3)c3ccccc3)N2C1=O was tested, and the IC50 (second compound 0.00316 µM) was < 31.6 nM, the IC50 (second compound 0.01 µM) was < 31.6 nM and the IC50 (second compound 0.0316 µM) was 3590 nM. For the same compound, the IC50 (second compound 0.1 µM) was 743 nM, the IC50 (second compound 0.316 µM) was 31.6 nM and the IC50 (second compound 1 µM) was < 31.6 nM. For the same compound, the viability, T/C [1] was 4.34%, the viability, T/C [2] was 4.85% and the viability, T/C (second compound 0.00316 µM, first compound 0.316 µM) was 5.04%. For the same compound, the viability, T/C (second compound 0.00316 µM, first compound 1 µM) was 5.11%, the viability, T/C (second compound 0.00316 µM, first compound 3.16 µM) was 4.26% and the viability, T/C (second compound 0.00316 µM, first compound 10 µM) was 4.12%. It also gave a viability, T/C [3] of 37%, a viability, T/C [4] of 43.8% and a viability, T/C (second compound 0.01 µM, first compound 0.316 µM) of 55.6%. It also gave a viability, T/C (second compound 0.01 µM, first compound 1 µM) of 33.9%, a viability, T/C (second compound 0.01 µM, first compound 3.16 µM) of 16.4% and a viability, T/C (second compound 0.01 µM, first compound 10 µM) of 16.1%. The viability, T/C [5] was 65.5%, the viability, T/C [6] was 67.9% and the viability, T/C (second compound 0.0316 µM, first compound 0.316 µM) was 62%. It also gave a viability, T/C (second compound 0.0316 µM, first compound 1 µM) of 58.1%, a viability, T/C (second compound 0.0316 µM, first compound 3.16 µM) of 55.2% and a viability, T/C (second compound 0.0316 µM, first compound 10 µM) of 23.9%. The viability, T/C [7] was 78.5%, the viability, T/C [8] was 71.3% and the viability, T/C (second compound 0.1 µM, first compound 0.316 µM) was 57.7%. For the same compound, the viability, T/C (second compound 0.1 µM, first compound 1 µM) was 54.7%, the viability, T/C (second compound 0.1 µM, first compound 3.16 µM) was 23.4% and the viability, T/C (second compound 0.1 µM, first compound 10 µM) was 34.9%. For the same compound, the viability, T/C [9] was 52%, the viability, T/C [10] was 44.4% and the viability, T/C (second compound 0.316 µM, first compound 0.316 µM) was 44.8%. The viability, T/C (second compound 0.316 µM, first compound 1 µM) was 50.8%, the viability, T/C (second compound 0.316 µM, first compound 3.16 µM) was 17.4% and the viability, T/C (second compound 0.316 µM, first compound 10 µM) was 21.4%. For the same compound, the viability, T/C [11] was 34.3%, the viability, T/C [12] was 47.7% and the viability, T/C (second compound 1 µM, first compound 0.316 µM) was 34.8%. It also gave a viability, T/C (second compound 1 µM, first compound 1 µM) of 27.9%, a viability, T/C (second compound 1 µM, first compound 3.16 µM) of 13.2% and a viability, T/C (second compound 1 µM, first compound 10 µM) of 13.8%.
